Laboratory results from ChEMBL document CHEMBL3739376, “Synthesis and biological evaluation of N-(4-phenylthiazol-2-yl)cinnamamide derivatives as novel potential anti-tumor agents” (Medchemcomm, 2015).

Experiments:
K562 = experiment: Cytotoxicity against human K562 cells assessed as inhibition of cell proliferation after 96 hrs by MTT assay; assay type: functional, cell-based; conditions: K562, 96 h
Jurkat = experiment: Cytotoxicity against human Jurkat cells assessed as inhibition of cell proliferation after 96 hrs by MTT assay; assay type: functional, cell-based
MDA-MB-468 = experiment: Cytotoxicity against human MDA-MB-468 cells assessed as inhibition of cell proliferation after 96 hrs by MTT assay; assay type: functional, cell-based; conditions: MDA-MB-468, 96 h
[1] = Cytotoxicity against human MV411 cells assessed as inhibition of cell proliferation after 96 hrs by MTT assay; assay type: functional, cell-based; conditions: MV4-11, 96 h
[2] = Cytotoxicity against human LO2 cells assessed as inhibition of cell proliferation after 96 hrs by MTT assay; assay type: cell-based; conditions: L02, 96 h
Vero = experiment: Cytotoxicity against african green monkey Vero cells assessed as inhibition of cell proliferation after 96 hrs by MTT assay; assay type: cell-based; conditions: Chlorocebus sabaeus
HEK293 = experiment: Cytotoxicity against HEK293 cells assessed as inhibition of cell proliferation after 96 hrs by MTT assay; assay type: cell-based; conditions: Homo sapiens, HEK293, 96 h
MCF7 = experiment: Cytotoxicity against human MCF7 cells assessed as inhibition of cell proliferation after 96 hrs by MTT assay; assay type: functional, cell-based; conditions: MCF7, 96 h
A549 = experiment: Cytotoxicity against human A549 cells assessed as inhibition of cell proliferation after 96 hrs by MTT assay; assay type: functional, cell-based; conditions: A549, 96 h
[3] = Cytotoxicity against human OCI-LY1 cells assessed as inhibition of cell proliferation after 96 hrs by MTT assay; assay type: functional, cell-based; conditions: OCI-Ly1, 96 h
[4] = Cytotoxicity against human Bel7402 cells assessed as inhibition of cell proliferation after 96 hrs by MTT assay; assay type: functional, cell-based; conditions: Bel-7402, 96 h

`COc1ccccc1-c1csc(NC(=O)/C=C/c2ccc(N3CCOCC3)cc2)n1` showed an IC50 (K562) of over 90 µM.

`CCOc1ccc(/C=C/C(=O)Nc2nc(-c3c(C)cc(C)cc3C)cs2)cc1` gave an IC50 (K562) of 2.48 µM.

Molecule `Cc1cc(C)c(-c2csc(NC(=O)/C=C/c3ccc(C4CC4)cc3)n2)c(C)c1` has an IC50 (K562) of 0.38 µM, an IC50 (Jurkat) of 1.24 µM and an IC50 (MDA-MB-468) of 15.7 µM. It also gave an IC50 [1] of 1.41 µM, an IC50 [2] of over 90 µM and an IC50 (Vero) of over 90 µM. For the same molecule, the IC50 (HEK293) was over 90 µM, the IC50 (MCF7) was 7.76 µM and the IC50 (A549) was 1.17 µM. For the same molecule, the IC50 [3] was 1.63 µM and the IC50 [4] was 6.58 µM.

`Cc1cc(C)c(-c2csc(NC(=O)/C=C/c3ccc([N+](=O)[O-])cc3)n2)c(C)c1` showed an IC50 (K562) of 32.2 µM.

For `Cc1cc(C)cc(-c2csc(NC(=O)/C=C/c3ccc(N4CCOCC4)cc3)n2)c1`, the IC50 (K562) was over 90 µM.

Molecule `Cc1cc(C)c(-c2csc(NC(=O)/C=C/c3ccc(N4CCOCC4)cc3)n2)c(C)c1` has an IC50 (K562) of 0.61 µM, an IC50 (Jurkat) of 9.05 µM and an IC50 (MDA-MB-468) of over 30 µM. The IC50 [1] was 6.42 µM, the IC50 [2] was over 90 µM and the IC50 (Vero) was over 90 µM. For the same molecule, the IC50 (HEK293) was over 90 µM, the IC50 (MCF7) was 20 µM and the IC50 (A549) was 4.29 µM. It also gave an IC50 [3] of 11.7 µM and an IC50 [4] of 10.6 µM.

`COc1cc(F)c(-c2csc(NC(=O)/C=C/c3ccc(N4CCOCC4)cc3)n2)c(F)c1` gave an IC50 (K562) of 30.3 µM.

Work on `COc1ccc(/C=C/C(=O)Nc2nc(-c3c(C)cc(C)cc3C)cs2)cc1` yielded an IC50 (K562) of 4.16 µM.

With `Cc1cc(C)c(-c2csc(NC(=O)/C=C/c3ccc(F)cc3)n2)c(C)c1` the IC50 (K562) was 14 µM.

`Cc1cc(C)c(-c2csc(NC(=O)/C=C/c3ccc(Cl)c(C(F)(F)F)c3)n2)c(C)c1` showed an IC50 (K562) of 3.06 µM.

Work on `O=C(/C=C/c1ccc(N2CCOCC2)cc1)Nc1nc(-c2ccccc2F)cs1` yielded an IC50 (K562) of 4.18 µM.

`Cc1ccc(-c2csc(NC(=O)/C=C/c3ccc(N4CCOCC4)cc3)n2)c(C)c1` gave an IC50 (K562) of 5.38 µM.

Work on `Cc1cc(C)c(-c2csc(NC(=O)/C=C/c3ccccc3)n2)c(C)c1` yielded an IC50 (K562) of 40.4 µM.

In the case of `Cc1ccc(/C=C/C(=O)Nc2nc(-c3c(C)cc(C)cc3C)cs2)cc1`, the IC50 (K562) is reported as 7.88 µM.

In the case of `COc1cc(/C=C/C(=O)Nc2nc(-c3c(C)cc(C)cc3C)cs2)cc(OC)c1OC`, the IC50 (K562) is reported as 11.8 µM.

For `Cc1cccc(-c2csc(NC(=O)/C=C/c3ccc(N4CCOCC4)cc3)n2)c1`, the IC50 (K562) was 7.51 µM.
